From patent publication US20090156669A1, “COMBINATION OF ACTIVE INGREDIENTS WITH INSECTICIDAL AND ACARICIDAL PROPERTIES” (Bayer CropScience AG, priority 2006, published 2009)

System: Tetranychus urticae
Assay: Tetranychus urticae test (OP-resistant, dip application)
Type: in vivo
Details: dip application of infested bush beans (Phaseolus vulgaris), OP-resistant spider mites
Protocol: Tetranychus urticae—Test (OP-Resistent, Dip Application)
To produce a suitable preparation of active compound, 1 part by weight of active compound is mixed with the stated amounts of solvent and emulsifier, and the concentrate is diluted with water to the desired concentrations.
Busch beans (Phaseolus vulgaris), which are heavily infected by the greenhouse red spider mite (Tetranychus urticae) are dipped into an active compound preparation of the desired concentration.
After the desired period of time, the kill in % is determined. 100% means that all spider mites have been killed; 0% means that none of the spider mites have been killed.

| Structure (SMILES) | Kill in % after 6 d (100 ppm) | Kill in % after 6 d (0.16 ppm) |
| --- | --- | --- |
| CC1(C)[C@H](/C=C(\Cl)C(F)(F)F)[C@@H]1C(=O)O[C@H](C#N)c1cccc(Oc2ccccc2)c1 [gamma-cyhalothrin] | 65% | – |
| Cc1cc(C)c(C2=C(OC(=O)CC(C)(C)C)C3(CCCC3)OC2=O)c(C)c1 [spiromesifen] | – | 0% |
